According to US6995182B2, “1-sulfonyl pyrrolidine derivatives” (Hoffmann-La Roche Inc., priority 2000, dated 2006):

| melting point | Compound |
| --- | --- |
| 186 °C | Cc1ccc(S(=O)(=O)N2[C@@H](C(=O)NCc3cccnc3)CC[C@H]2c2ccc(F)cc2)cc1.Cl (racemic) |
| 91 °C | COC(=O)[C@H]1CC[C@@H](c2ccc(F)cc2)N1S(=O)(=O)c1ccc(C)cc1 (racemic) [Example 1, (2RS,5SR)-5-(4-Fluoro-phenyl)-1-(toluene-4-sulfonyl)-pyrrolidine-2-carboxylic acid methyl ester] |
| 82 °C | Cc1ccc(S(=O)(=O)N2[C@@H](CO)CC[C@H]2c2ccc(F)cc2)cc1 (racemic) [Example 2, (2RS,5SR)-[5-(4-Fluoro-phenyl)-1-(toluene-4-sulfonyl)-pyrrolidin-2-yl]-methanol] |
| 137 °C | Cc1ccc(S(=O)(=O)N2[C@@H](C(N)=O)CC[C@H]2c2ccc(F)cc2)cc1 (racemic) [Example 3, (2RS,5SR)-5-(4-Fluoro-phenyl)-1-(toluene-4-sulfonyl)-pyrrolidine-2-carboxylic acid amide] |
| 217 °C | Cc1ccc(S(=O)(=O)N2[C@@H](C(=N)NO)CC[C@H]2c2ccc(F)cc2)cc1 (racemic) [Example 7, (2RS,5SR)-5-(4-Fluoro-phenyl)-N-hydroxy-1-(toluene-4-sulfonyl)-pyrrolidine-2-carboxamidine] |
| 152 °C | COC[C@@H]1CC[C@H](c2ccc(F)cc2)N1S(=O)(=O)c1ccc(C)cc1 (racemic) [Example 8, (2RS,5SR)-2-(4-Fluoro-phenyl)-5-methoxymethyl-1-(toluene-4-sulfonyl)-pyrrolidine] |
| 117 °C | CC(=O)NC[C@H]1CC[C@@H](c2ccc(F)cc2)N1S(=O)(=O)c1ccc(C)cc1 (racemic) [Example 9, (2RS,5SR)-N-[5-(4-Fluoro-phenyl)-1-(toluene-4-sulfonyl)-pyrrolidin-2-yl-methyl]-acetamide] |
| 116 °C | Cc1ccc(S(=O)(=O)N2[C@@H](CC#N)CC[C@H]2c2ccc(F)cc2)cc1 (racemic) [Example 10, (2RS,5SR)-[5-(4-Fluoro-phenyl)-1-(toluene-4-sulfonyl)-pyrrolidin-2-yl]-acetonitrile] |
| 165 °C | Cc1ccc(S(=O)(=O)N2[C@@H](c3ncon3)CC[C@H]2c2ccc(F)cc2)cc1 (racemic) [Example 14, (2RS,5SR)-3-[5-(4-Fluoro-phenyl)-1-(toluene-4-sulfonyl)-pyrrolidin-2-yl]-[1,2,4]oxadiazole] |
| 142 °C | CCC(=O)NC[C@H]1CC[C@@H](c2ccc(F)cc2)N1S(=O)(=O)c1ccc(C)cc1 (racemic) [Example 15, (2RS,5SR)-N-[5-(4-Fluoro-phenyl)-1-(toluene-4-sulfonyl)-pyrrolidin-2-yl-methyl]-propionamide] |
| 60 °C | Cc1ccc(S(=O)(=O)N2[C@@H](CCNC(=O)c3ccccc3)CC[C@H]2c2ccc(F)cc2)cc1 (racemic) [Example 18, (2RS,5SR)-N-{2-[5-(4-Fluoro-phenyl)-1-(toluene-4-sulfonyl)-pyrrolidin-2-yl]-ethyl}-benzamide] |
| 124 °C | CC(=O)NCC[C@H]1CC[C@@H](c2ccc(F)cc2)N1S(=O)(=O)c1ccc(C)cc1 (racemic) [Example 20, (2RS,5SR)-N-{2-[5-(4-Fluoro-phenyl)-1-(toluene-4-sulfonyl)-pyrrolidin-2-yl]-ethyl}-acetamide] |
| 128 °C | Cc1ccc(S(=O)(=O)N2[C@@H](c3nc(C)no3)CC[C@H]2c2ccc(F)cc2)cc1 (racemic) [Example 25, (2RS,5SR)-5-[5-(4-Fluoro-phenyl)-1-(toluene-4-sulfonyl)-pyrrolidin-2-yl]-3-methyl-[1,2,4]oxadiazole] |
| 160 °C | Cc1ccc(S(=O)(=O)N2[C@@H](c3ncn(C)n3)CC[C@H]2c2ccc(F)cc2)cc1 (racemic) [Example 26, (2RS,5SR)-3-[5-(4-Fluoro-phenyl)-1-(toluene-4-sulfonyl)-pyrrolidin-2-yl]-1-methyl-1H-[1,2,4]triazole] |
| 150 °C | Cc1ccc(S(=O)(=O)N2[C@@H](c3nnn(C)n3)CC[C@H]2c2ccc(F)cc2)cc1 (racemic) [Example 27, (2RS,5SR)-5-[5-(4-Fluoro-phenyl)-1-(toluene-4-sulfonyl)-pyrrolidin-2-yl]-2-methyl-2H-tetrazole] |
| 136 °C | Cc1ccc(S(=O)(=O)N2[C@@H](CCC(N)=O)CC[C@H]2c2ccc(F)cc2)cc1 (racemic) [Example 29, (2RS,5SR)-3-[5-(4-Fluoro-phenyl)-1-(toluene-4-sulfonyl)-pyrrolidin-2-yl]-propionamide] |
| 91 °C | Cc1ccc(S(=O)(=O)N2[C@@H](CCc3nc(C)no3)CC[C@H]2c2ccc(F)cc2)cc1 (racemic) [Example 30, (2RS,5SR)-5-{2-[5-(4-Fluoro-phenyl)-1-(toluene-4-sulfonyl)-pyrrolidin-2-yl]-ethyl}-3-methyl-[1,2,4]oxadiazole] |

| melting point | Compound |
| --- | --- |
| 86 °C | Cc1ccc(S(=O)(=O)N2[C@@H](CCC#N)CC[C@H]2c2ccc(F)cc2)cc1 (racemic) [Example 31, (2RS,5SR)-3-[5-(4-Fluoro-phenyl)-1-(toluene-4-sulfonyl)-pyrrolidin-2-yl]-propionitrile] |
| 134 °C | Cc1ccc(S(=O)(=O)N2[C@@H](CCC(=N)NO)CC[C@H]2c2ccc(F)cc2)cc1 (racemic) [Example 34, (2RS,5SR)-3-[5-(4-Fluoro-phenyl)-1-(toluene-4-sulfonyl)-pyrrolidin-2-yl]-N-hydroxy-propionamidine] |
| 147 °C | Cc1ccc(S(=O)(=O)N2[C@@H](CNC(=O)C3CCCC3)CC[C@H]2c2ccc(F)cc2)cc1 (racemic) [Example 37, (2RS,5SR)-Cyclopentanecarboxylic acid [5-(4-fluoro-phenyl)-1-(toluene-4-sulfonyl)-pyrrolidin-2-yl-methyl]-amide] |
| 128 °C | Cc1ccc(S(=O)(=O)N2[C@@H](CNC(=O)C(C)(C)C)CC[C@H]2c2ccc(F)cc2)cc1 (racemic) [Example 38, (2RS,5SR)-N-[5-(4-Fluoro-phenyl)-1-(toluene-4-sulfonyl)-pyrrolidin-2-yl-methyl]-2,2-dimethyl-propionamide] |
| 93 °C | Cc1ccc(S(=O)(=O)N2[C@@H](CCCO)CC[C@@H]2c2ccc(F)cc2)cc1 (racemic) [Example 44, (2RS,5RS)-3-[5-(4-Fluoro-phenyl)-1-(toluene-4-sulfonyl)-pyrrolidin-2-yl]-propan-1-ol] |
| 74 °C | Cc1ccc(S(=O)(=O)N2[C@H](CCCC#N)CC[C@@H]2c2ccc(F)cc2)cc1 (racemic) [Example 45, (2RS,5RS)-4-[5-(4-Fluoro-phenyl)-1-(toluene-4-sulfonyl)-pyrrolidin-2-yl]-butyronitrile] |
| 107 °C | Cc1ccc(S(=O)(=O)N2[C@H](CCCc3nnn(C)n3)CC[C@@H]2c2ccc(F)cc2)cc1 (racemic) [Example 49, (2RS,5RS)-5-{3-[5-(4-Fluoro-phenyl)-1-(toluene-4-sulfonyl)-pyrrolidin-2-yl]-propyl}-2-methyl-2H-tetrazole] |
| 153 °C | Cc1ccc(S(=O)(=O)N2[C@H](CCCc3nnnn3C)CC[C@@H]2c2ccc(F)cc2)cc1 (racemic) [Example 50, (2RS,5RS)-5-{3-[5-(4-Fluoro-phenyl)-1-(toluene-4-sulfonyl)-pyrrolidin-2-yl]-propyl}-1-methyl-1H-tetrazole] |
| 79 °C | Cc1ccc(S(=O)(=O)N2[C@H](CCCCC#N)CC[C@@H]2c2ccc(F)cc2)cc1 (racemic) [Example 51, (2RS,5RS)-5-[5-(4-Fluoro-phenyl)-1-(toluene-4-sulfonyl)-pyrrolidin-2-yl]-pentanenitrile] |
| 120 °C | Cc1ccc(S(=O)(=O)N2[C@H](CCCCc3nnnn3C)CC[C@@H]2c2ccc(F)cc2)cc1 (racemic) [Example 54, (2RS,5RS)-5-{4-[5-(4-Fluoro-phenyl)-1-(toluene-4-sulfonyl)-pyrrolidin-2-yl]-butyl}-1-methyl-1H-tetrazole] |
| 103 °C | CC(=O)NCC[C@H]1CC[C@@H](c2ccc(F)cc2)N1S(=O)(=O)c1ccc(Cl)cc1 (racemic) [Example 56, (2RS,5SR)-N-{2-[1-(4-Chloro-benzenesulfonyl)-5-(4-fluoro-phenyl)-pyrrolidin-2-yl]-ethyl}-acetamide] |
| 80 °C | O=C(NCC[C@H]1CC[C@@H](c2ccc(F)cc2)N1S(=O)(=O)c1ccc(Cl)cc1)C1CC1 (racemic) [Example 57, (2RS,5SR)-Cyclopropanecarboxylic acid {2-[1-(4-chloro-benzenesulfonyl)-5-(4-fluoro-phenyl)-pyrrolidin-2-yl]-ethyl}-amide] |
| 49 °C | CC(=O)NCCC[C@@H]1CC[C@H](c2ccc(F)cc2)N1S(=O)(=O)c1ccc(Cl)cc1 (racemic) [Example 66, (2RS,5RS)-N-{3-[1-(4-Chloro-benzenesulfonyl)-5-(4-fluoro-phenyl)-pyrrolidin-2-yl]-propyl}-acetamide] |
| 91 °C | Cc1ccc(S(=O)(=O)N2[C@H](CCCc3nc(C)no3)CC[C@@H]2c2ccc(F)cc2)cc1 (racemic) [Example 71, (2RS,5RS)-5-{3-[5-(4-Fluoro-phenyl)-1-(toluene-4-sulfonyl)-pyrrolidin-2-yl]-propyl}-3-methyl-[1,2,4]oxadiazole] |
| 122 °C | Cn1nnc(CC[C@H]2CC[C@@H](c3ccc(F)cc3)N2S(=O)(=O)c2ccc(Cl)cc2)n1 (racemic) [Example 73, (2RS,5SR)-5-{2-[1-(4-Chloro-benzenesulfonyl)-5-(4-fluoro-phenyl)-pyrrolidin-2-yl]-ethyl}-2-methyl-2H-tetrazole] |
| 129 °C | Cc1ccc(S(=O)(=O)N2[C@@H](CCc3nc(C4CC4)no3)CC[C@H]2c2ccc(F)cc2)cc1 (racemic) [Example 75, (2RS,5SR)-3-Cyclopropyl-5-{2-[5-(4-fluoro-phenyl)-1-(toluene-4-sulfonyl)-pyrrolidin-2-yl]-ethyl}-[1,2,4]oxadiazole] |
| 145 °C | Cc1ccc(S(=O)(=O)N2[C@@H](CCc3ncnn3C)CC[C@H]2c2ccc(F)cc2)cc1 (racemic) [Example 78, (2RS,5SR)-5-{2-[5-(4-Fluoro-phenyl)-1-(toluene-4-sulfonyl)-pyrrolidin-2-yl]-ethyl}-1-methyl-1H-[1,2,4]triazole] |
